The values that follow are results of earlier work, collected in patent US11174243B2, “Succinate forms and compositions of Bruton's tyrosine kinase inhibitors” (Sunesis Pharmaceuticals, Inc., priority 2016, dated 2021).

Read-outs that look alike come from different tables or passages of the source.

The conditions of the data set: mean, cited from earlier work.

A word on the Cmax: it is the highest concentration seen after dosing. As to `C=CC(=O)N1CCC[C@@H](n2nc(-c3ccc(Oc4ccccc4)cc3)c3c(N)ncnc32)C1` [Ibrutinib], under “560 mg (single dose)”, the Cmax is 141 ng/mL.

`CC#CC(=O)N1CCC[C@H]1c1nc(-c2ccc(C(=O)Nc3ccccn3)cc2)c2c(N)nccn12` [Acalabrutinib]: under “100 mg BID (steady state)”, the AUC0-24 is 1850 ng·h/mL and the Cmax was 827 ng/mL.
